Marks after values point to notes of the source that are not given here.
Experiments:
[1] = test system: citric acid induced cough in OVA sensitised guinea pigs; experiment: Anti-tussive activity: citric acid induced cough in OVA sensitised guinea pigs (whole body plethysmograph); assay type: in vivo, guinea pig; conditions: for Number of coughs: 2 h before 15 min citric acid challenge, mean; for Anti-tussive effect (%): summary
Description: Animals—Male albino Dunkin-Hartley guinea pigs (350-550 g; Charles River WIGA GmbH, Sulzfeld, Germany) were used. The animals were housed in groups of 6 in solid floor cages and allowed free access to water and standard food. The guinea pigs were kept in rooms maintained at a constant temperature (22° C.±2° C.) and humidity (60%±15%), with a 12 h light cycle. The experiments were approved by the ethical committee Regierungspräsidium Tübingen, Germany.
OVA asthma model—On days 1 and 2, the guinea pigs were immunised by subcutaneous injection of 0.5 ml per animal of a solution of ovalbumin (OVA) (40 μg/ml) and aluminium hydroxide [Al (OH)3]. On day 14, these sensitised guinea pigs were challenged with OVA by exposure to an OVA aerosol (1.25 mg/ml) for 5 minutes, using a Dräger Inhalette® (Dräger Medical AG & Co. KgaA, Lübeck, Germany). 30 minutes prior to the challenge, pyrilamine maleate (2 mg/kg i.p.) was administered to protect the animals against bronchospasm. On day 15, the citric acid challenge was given to induce cough. 2 hours before the challenge, the test compound or vehicle (saline) was delivered by intratracheal (i.t.) administration (0.5 ml/kg) under anaesthesia with isoflurane (Forene®, Abbott GmbH and CO. KG, Wiesbaden, Germany).
Cough recording—Two hours after i.t. application, the citric acid challenge was performed. A whole body plethysmograph manufactured for guinea pigs (Buxco Research Systems, Wilmington, N.C., USA) was used for the experiments. Conscious animals were individually placed, unrestrained, into a whole body plethysmograph chamber. A solution of citric acid (0.4 M) was nebulised using the Aerosol Delivery System (Buxco) and administered to the animals at a rate of nebulisation of 0.18 ml/min for 15 min. During the challenge, airflow in the chamber was recorded by the Buxco system and analysed for the transient increase in airflow produced by cough, in which rapid inspiration is followed by rapid expiration. The system was able to distinguish coughs from other expiratory responses, and the number of coughs was counted.
Data analysis—Data from the treatment groups were compared with the vehicle group. Data are expressed as mean ±SEM of coughs produced by guinea pigs within each group during a 15 minutes citric acid aerosol exposure. Mean values were statistically analyzed by one-way analysis of variance (ANOVA) followed by the Dunnett's Multiple comparisons Test to evaluate significant differences between groups with p<0.05 being considered significant.

heart rate = experiment: Side-effects: increase in heart rate after drug instillation
Description: In the following the heart rate is expressed as a percentage of the pre-value (heart beats per minute) preceding the drug administration. The increase in heart rate expressed in percent corresponds to the difference of heart rate between the vehicle group and the treated group recorded 20 minutes after drug instillation.

[2] = test system: acetylcholine induced bronchoconstriction in guinea pigs; experiment: Bronchoprotection: acetylcholine induced bronchospasm in anaesthetised guinea pigs (Konzett-Rössler); assay type: in vivo, guinea pig; conditions: for Bronchoconstriction (ml overflow): 2 h before acetylcholine 14 μg/kg i.v., mean; for bronchoprotective FED: first dose without side-effect displaying 80 to 100% efficacy
Description: Animal-Male and female Dunkin-Harley guinea pigs were obtained from the Experimental Animal Breeding Centre of Harlan Winkelmann (Germany). After fasting overnight, but with free access to drinking water, animals with body weight of 400-500 g are used. Anesthesia and preparation-The anesthesia was induced by intraperitoneal injection of 50 mg/kg pentobarbital. Anesthesia was prolonged by intravenous infusion of pentobarbital (15 mg/kg/h) via the jugular vein. A tracheal cannula was introduced after tracheotomy for artificial ventilation. The internal jugular vein was cannulated for acetylcholine injection. Instrumentation-Bronchospasm was recorded with a modified version of the method of Konzett-Röβler described by […] et al, 1997. […] Lung resistance was measured as ml of overflow and was recorded, amplified and saved under Notocord files (Notocord-hem, Notocord, France). Blood pressure and heart rate were monitored from a carotid artery in order to check the anesthesia and the variability of the preparation. Experimental protocol-2 hours before acetylcholine challenge, guinea pigs were given the test compound or its vehicle intra-tracheally under a slight isoflurane anesthesia. 30 minutes before acetylcholine challenge, lung resistance and blood pressure were measured under anesthesia. […] Data analysis-Data from the treatment groups were compared with the vehicle group. Data are expressed as mean ±SD of ml of overflow. […] Mean values were statistically analyzed by one-way analysis of variance (ANOVA) followed by the Dunnett's Multiple comparisons Test to evaluate significant differences between groups with p<0.05 being considered significant.

cough reflex = conditions: inhaled therapy in asthma, COPD or IPF; therapeutic doses; cited from earlier work
[3] = 1 μg/kg i.t., inhibition of acetylcholine bronchoconstriction
[4] = Dunkin-Hartley, guinea pig, in vivo, 20 min

## COc1ccc2c3c1O[C@H]1[C@@H](O)C=C[C@H]4[C@@H](C2)N(C)CC[C@@]341 [Codeine]
[1]; 1 mg/kg i.t.
  Inhibition of cough (%) vs vehicle: 17%
  Number of coughs: 20
[1]; 3 mg/kg i.t.
  Inhibition of cough (%) vs vehicle: 42 * %
  Number of coughs: 14
[1]; 10 mg/kg i.t.
  Inhibition of cough (%) vs vehicle: 58 * %
  Number of coughs: 10
[1]; 30 mg/kg i.t.
  Inhibition of cough (%) vs vehicle: 71 * %
  Number of coughs: 7

## COc1ccc(CC(C)NCC(O)c2ccc(O)c(NC=O)c2)cc1 (stereo not drawn) [Formoterol]
Heart rate; 10 μg/kg, 20 min after administration
  increase in heart rate: 21%
Heart rate; first dose increasing heart rate at least 10% vs vehicle, 20 min after administration
  Dose inducing side-effect (increase in heart rate): 10 µg/kg
[1]; 1 μg/kg i.t.
  Inhibition of cough (%) vs vehicle: 0%
  Number of coughs: 26
[1]; 3 μg/kg i.t.
  Inhibition of cough (%) vs vehicle: 71 * %
  Number of coughs: 7
[1]; 10 μg/kg i.t.
  Inhibition of cough (%) vs vehicle: 58 * %
  Number of coughs: 10
[1]; 3 μg/kg
  Anti-tussive effect (%): 71%
[1]; 10 μg/kg
  Anti-tussive effect (%): 58%

## CCc1cc2c(cc1CC)CC(NC[C@H](O)c1ccc(O)c3[nH]c(=O)ccc13)C2 [Indacaterol]
[2]; 1 μg/kg i.t.
  Bronchoconstriction (ml overflow): 34 mL
[2]; [3]
  Bronchoprotection (%): 8%
[2]; 3 μg/kg i.t.
  Bronchoconstriction (ml overflow): 18 mL
[2]; 3 μg/kg i.t., inhibition of acetylcholine bronchoconstriction
  Bronchoprotection (%): 51 * %
[2]; 10 μg/kg i.t.
  Bronchoconstriction (ml overflow): 6 mL
[2]; 10 μg/kg i.t., inhibition of acetylcholine bronchoconstriction
  Bronchoprotection (%): 84 * %
[2]; 30 μg/kg i.t.
  Bronchoconstriction (ml overflow): 5 mL
[2]; 30 μg/kg i.t., inhibition of acetylcholine bronchoconstriction
  Bronchoprotection (%): 86 * %
[2]; Cavia porcellus, inhaled or nasal, i.t.
  ED50: 3 µg/kg
[2]
  bronchoprotective FED: 10 µg/kg
[2]; summary, 1 μg/kg
  Bronchoprotection (%): 8%
[2]; summary, 3 μg/kg
  Bronchoprotection (%): 51%
[2]; summary, 10 μg/kg
  Bronchoprotection (%): 84%
[2]; summary, 30 μg/kg
  Bronchoprotection (%): 86%
Heart rate; [4]
  Dose inducing side-effect (increase in heart rate): 100 µg/kg
Heart rate; guinea pig, in vivo, 20 min
  ratio dose inducing side-effect/bronchoprotective FED: 10
  safety margin, times less than for Olodaterol: 10
[1]; 3 μg/kg i.t.
  Inhibition of cough (%) vs vehicle: 0%
  Number of coughs: 26
[1]; 10 μg/kg i.t.
  Inhibition of cough (%) vs vehicle: 0%
  Number of coughs: 32
[1]; 30 μg/kg i.t.
  Inhibition of cough (%) vs vehicle: 0%
  Number of coughs: 38
[1]; 3 μg/kg
  Anti-tussive effect (%): 0%
[1]; 10 μg/kg
  Anti-tussive effect (%): 0%
[1]; 30 μg/kg
  Anti-tussive effect (%): 0%

## COc1ccc(CC(C)(C)NC[C@H](O)c2cc(O)cc3c2OCC(=O)N3)cc1 [Olodaterol]
[2]; 0.01 μg/kg i.t.
  Bronchoconstriction (ml overflow): 25 mL
[2]; 0.01 μg/kg i.t., inhibition of acetylcholine bronchoconstriction
  Bronchoprotection (%): 32%
[2]; 0.03 μg/kg i.t.
  Bronchoconstriction (ml overflow): 14 mL
[2]; 0.03 μg/kg i.t., inhibition of acetylcholine bronchoconstriction
  Bronchoprotection (%): 62 * %
[2]; 0.1 μg/kg i.t.
  Bronchoconstriction (ml overflow): 8 mL
[2]; 0.1 μg/kg i.t., inhibition of acetylcholine bronchoconstriction
  Bronchoprotection (%): 78 * %
[2]; 0.3 μg/kg i.t.
  Bronchoconstriction (ml overflow): 4 mL
[2]; 0.3 μg/kg i.t., inhibition of acetylcholine bronchoconstriction
  Bronchoprotection (%): 89 * %
[2]; 1 μg/kg i.t.
  Bronchoconstriction (ml overflow): 2 mL
[2]; [3]
  Bronchoprotection (%): 95 * %
[2]
  bronchoprotective FED: 0.3 µg/kg
[2]; i.t.
  minimum effective dose for bronchoprotection: 0.01 µg/kg
[2]; summary, 0.01 μg/kg
  Bronchoprotection (%): 32%
[2]; summary, 0.03 μg/kg
  Bronchoprotection (%): 62%
[2]; summary, 0.1 μg/kg
  Bronchoprotection (%): 78%
[2]; summary, 0.3 μg/kg
  Bronchoprotection (%): 89%
[2]; summary, 1 μg/kg
  Bronchoprotection (%): 95%
Heart rate; [4]
  Dose inducing side-effect (increase in heart rate): 30 µg/kg
  ratio dose inducing side-effect/antitussive FED: 300
  ratio dose inducing side-effect/bronchoprotective FED: 100
Heart rate; in vivo
  addiction or arrhythmia: no addiction or arrhythmia
[1]; 0.01 μg/kg i.t.
  Inhibition of cough (%) vs vehicle: 33%
  Number of coughs: 16
[1]; 0.03 μg/kg i.t.
  Inhibition of cough (%) vs vehicle: 58 * %
  Number of coughs: 10
[1]; 0.1 μg/kg i.t.
  Inhibition of cough (%) vs vehicle: 79 * %
  Number of coughs: 5
[1]; 0.3 μg/kg i.t.
  Inhibition of cough (%) vs vehicle: 79 * %
  Number of coughs: 5
[1]; 1 μg/kg i.t.
  Inhibition of cough (%) vs vehicle: 75 * %
  Number of coughs: 6
[1]; 3 μg/kg i.t.
  Inhibition of cough (%) vs vehicle: 79 * %
  Number of coughs: 5
[1]; first dose without side-effect displaying 70 to 80% efficacy
  antitussive Fully Effective Dose (FED): 0.1 µg/kg
[1]; 0.01 μg/kg
  Anti-tussive effect (%): 33%
[1]; 0.03 μg/kg
  Anti-tussive effect (%): 58%
[1]; 0.1 μg/kg
  Anti-tussive effect (%): 79%
[1]; 0.3 μg/kg
  Anti-tussive effect (%): 79%
[1]; 1 μg/kg
  Anti-tussive effect (%): 75%

## OCc1cc(C(O)CNCCCCCCOCCCCc2ccccc2)ccc1O (stereo not drawn) [Salmeterol]
Cough reflex
  effect on cough reflex: display anti-tussive effect
